Reference: US20210330611A1, “THERAPY FOR NEUROLOGICAL DISEASES/DISORDERS” (priority 2020, published 2021)
Structures can show the parent of a compound that is named as a salt. Where two headings read alike, the source gives them in different places.

Legend:
[1] = tested on: LPS-induced microglia activation; experiment: Image-based assay of LPS-induced microglia activation (HTS and dose response); assay type: cell-based, rat; settings: for inhibition at 10 µM: Rattus norvegicus, Microglia, read-out: LPS % inhibition
[2] = tested on: fibrin- and LPS-induced microglia activation; experiment: cells; assay type: cell-based, rat
primary rat microglia [3] = experiment: Cell toxicity (dead cells, size <150 μm2) in LPS assay
primary rat microglia [4] = experiment: Cell toxicity (dead cells, size <150 μm2) in coated fibrin (cFib) assay;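 note: share of dead cells sized under 150 µm2 at 10 µM in fibrin-stimulated microglia HTS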
[5] = tested on: fibrin-induced microglia activation; experiment: Image-based assay of fibrin-induced microglia activation (HTS and dose response); assay type: cell-based, rat; settings: for inhibition at 10 µM: Rattus norvegicus, Microglia, read-out: Fibrin % inhibition
[6] = 48 h, primary microglia HTS, LPS stimulation, activation = cell size >800 μm2
[7] = quadrant by fibrin and LPS inhibition in HTS of 1907 compounds
[8] = primary microglia HTS, LPS stimulation, toxicity = cell size <150 μm2
[9] = primary microglia HTS, fibrin stimulation, toxicity = cell size <150 μm2
[10] = primary microglia HTS, fibrin stimulation, activation = cell size >800 μm2
[11] = primary microglia HTS, LPS stimulation, decreased size (<150 μm^2) as marker of toxicity
[12] = primary microglia HTS, fibrin stimulation, decreased size (<150 μm^2) as marker of toxicity
[13] = primary microglia HTS, fibrin stimulation, increased cell size (>800 μm^2) as marker of activation
[14] = primary microglia HTS, LPS stimulation, activation = cell size >800 μm2
[15] = 48 h, primary microglia HTS, LPS stimulation, increased cell size (>800 μm^2) as marker of activation
[16] = primary HTS, 10 μM, LPS-stimulated primary microglia
[17] = primary HTS, 10 μM, LPS assay, dead cells size <150 μm2
[18] = primary HTS, 10 μM, fibrin assay, dead cells size <150 μm2
[19] = primary HTS, 10 μM, fibrin-stimulated primary microglia

Compound: N=C(N)N [Guanidine]
- inhibition at 10 µM [1, 6]: -1%
- Quadrant (FIG. 5b) [2, 7]: Q4
- LPS % cell toxicity (primary rat microglia [3]; [8]): 0%
- Fibrin % cell toxicity (primary rat microglia [4]; [9]): 0%
- inhibition at 10 µM [5, 10]: -32%

Compound: CC1CCCC(C)N1 (stereo not drawn) [Nanofin]
- LPS % inhibition ([1]; primary microglia HTS, LPS stimulation, increased cell size (>800 μm^2) as marker of activation): 12%
- Quadrant (FIG. 5b) [2, 7]: Q4
- LPS % cell toxicity (primary rat microglia [3]; [11]): 0%
- Fibrin % cell toxicity (primary rat microglia [4]; [12]): 1%
- Fibrin % inhibition [5, 13]: 17%

Compound: CCC[C@@H]1C[C@@H](C(=O)N[C@@H]([C@H]2O[C@H](SC)[C@H](O)[C@@H](O)[C@H]2O)[C@@H](C)O)N(C)C1 [Lincomycin]
- LPS % inhibition [1, 14]: −5%
- Quadrant (FIG. 5b) [2, 7]: Q4
- LPS % cell toxicity (primary rat microglia [3]; [8]): 0%
- Fibrin % cell toxicity (primary rat microglia [4]; [9]): 1%
- Fibrin % inhibition [5, 10]: −29%

Compound: CCN(CC)C(=O)c1cccnc1 [Nikethamide]
- inhibition at 10 µM [1, 15]: -4%
- Quadrant (FIG. 5b) [2, 7]: Q4
- LPS % cell toxicity (primary rat microglia [3]; [11]): 0%
- Fibrin % cell toxicity (primary rat microglia [4]; [12]): 0%
- inhibition at 10 µM [5, 13]: 12%

Compound: Oc1c(Br)cc(Br)c2cccnc12 [Broxyquinoline]
- inhibition at 10 µM [1, 16]: 8%
- Quadrant (FIG. 5b) ([2]; primary HTS, 10 μM): Q4
- LPS % cell toxicity (primary rat microglia [3]; [17]): 0%
- Fibrin % cell toxicity (primary rat microglia [4]; [18]): 0%
- inhibition at 10 µM [5, 19]: -25%

Compound: CC(=O)OCC(=O)[C@@]1(O)CC[C@H]2[C@@H]3CCC4=CC(=O)C=C[C@]4(C)[C@@]3(F)[C@@H](O)C[C@@]21C [Isoflupredone Acetate]
- inhibition at 10 µM [1, 15]: 90%
- Quadrant (FIG. 5b) [2, 7]: Q2
- LPS % cell toxicity (primary rat microglia [3]; [11]): 2%
- Fibrin % cell toxicity (primary rat microglia [4]; [12]): 3%
- inhibition at 10 µM [5, 13]: 106%

Compound: O=C(NCc1ccccc1)OCCO [Buramate]
- inhibition at 10 µM [1, 16]: 17%
- Quadrant (FIG. 5b) ([2]; primary HTS, 10 μM): Q4
- LPS % cell toxicity (primary rat microglia [3]; [17]): 0%
- Fibrin % cell toxicity (primary rat microglia [4]; [18]): 1%
- inhibition at 10 µM [5, 19]: 9%

Compound: COc1ccc(CN2CCN(C(c3ccc(F)cc3)c3ccc(F)cc3)CC2)c(OC)c1OC [Lomerizine, Lomerizine Dihydrochloride]
- LPS % inhibition [1, 14]: 8%
- Quadrant (FIG. 5b) [2, 7]: Q4
- LPS % cell toxicity (primary rat microglia [3]; [8]): 0%
- Fibrin % cell toxicity (primary rat microglia [4]; [9]): 1%
- Fibrin % inhibition [5, 10]: −5%

Compound: CCN(CC)CCNC(C(=O)OCCC(C)C)c1ccccc1 (stereo not drawn) [Camylofine Dihydrochloride]
- inhibition at 10 µM [1, 16]: 15%
- Quadrant (FIG. 5b) ([2]; primary HTS, 10 μM): Q4
- LPS % cell toxicity (primary rat microglia [3]; [17]): 1%
- Fibrin % cell toxicity (primary rat microglia [4]; [18]): 1%
- inhibition at 10 µM [5, 19]: -27%

Compound: O=C1NCC2(CCN(CCc3ccccc3)CC2)O1 [Fenspiride]
- inhibition at 10 µM [1, 6]: -1%
- Quadrant (FIG. 5b) [2, 7]: Q4
- LPS % cell toxicity (primary rat microglia [3]; [8]): 0%
- Fibrin % cell toxicity (primary rat microglia [4]; [9]): 1%
- inhibition at 10 µM [5, 10]: -43%

Compound: CCCCC/C=C\CCC(=O)N[C@H]1[C@H](Oc2c3cc4cc2Oc2ccc(cc2Cl)[C@@H](O[C@@H]2O[C@H](CO)[C@@H](O)[C@H](O)[C@H]2NC(C)=O)[C@@H]2NC(=O)[C@H](NC(=O)[C@@H]4NC(=O)[C@H]4NC(=O)[C@@H](Cc5ccc(c(Cl)c5)O3)NC(=O)[C@H](N)c3ccc(O)c(c3)Oc3cc(O)cc4c3)c3ccc(O)c(c3)-c3c(O[C@H]4O[C@H](CO)[C@@H](O)[C@H](O)[C@@H]4O)cc(O)cc3[C@@H](C(=O)O)NC2=O)O[C@H](CO)[C@@H](O)[C@@H]1O [Teicoplanin [a(2-1) Shown]]
- LPS % inhibition ([1]; primary microglia HTS, 10 μM, LPS-stimulated, cell size >800 μm^2 as marker of activation): 20%
- Quadrant (FIG. 5b) ([2]; HTS of 1907 compounds, quadrant by fibrin and LPS inhibition): Q4
- LPS % cell toxicity (primary rat microglia [3]; primary microglia HTS, 10 μM, LPS assay, cell size <150 μm^2 as marker of toxicity): 0%
- Fibrin % cell toxicity (primary rat microglia [4]; primary microglia HTS, 10 μM, fibrin assay, cell size <150 μm^2 as marker of toxicity): 1%
- Fibrin % inhibition ([5]; primary microglia HTS, 10 μM, fibrin-stimulated, cell size >800 μm^2 as marker of activation): 43%

Compound: CC(=O)NCc1c(I)c(NC(C)=O)c(I)c(C(=O)O)c1I [Iodamide]
- inhibition at 10 µM [1, 15]: 67%
- Quadrant (FIG. 5b) [2, 7]: Q1
- LPS % cell toxicity (primary rat microglia [3]; [11]): 1%
- Fibrin % cell toxicity (primary rat microglia [4]; [12]): 0%
- inhibition at 10 µM [5, 13]: 41%
